The text below walks through data of patent US10183952B2, “Thienopyrroles as histone demethylase inhibitors” (ISTITUTO EUROPEO DI ONCOLOGIA S.R.L., priority 2014, dated 2019).

Structures can show the parent of a compound that is named as a salt.

This assay addresses human recombinant KDM1A/CoREST protein (Homo sapiens, UniProt O60341). As to the kind of experiment: Assay of enzyme inhibition of KDM1A (LSD1), TR-FRET.
Description: The intensity of the light emission is proportional to the level of biotinylated reaction product. The complex of human recombinant KDM1A/CoREST protein was produced in E. coli as separate proteins and co-purified as previously described.
Demethylase reaction was started by the addition of 50 nM histone H3K4 monomethylated.
The resulting mixture was incubated in the dark for 1 h at RT.
The IC50 was calculated using GraphPad Software.
The IC50 is the concentration at which inhibition is half-maximal. For the compound `Cn1c(C(=O)Nc2cccc(COc3ccncc3)c2)cc2sccc21` [Example 22, 4-methyl-N-[3-(4-pyridyloxymethyl)phenyl]thieno[3,2-b]pyrrole-5-carboxamide], the IC50 was less than 10 µM.
For `CN1CCC(Oc2ccc(OCc3ccc(NC(=O)c4cc5sccc5n4C)cc3)cc2)CC1` [Example 23, 4-methyl-N-[4-[[4-[(1-methyl-4-piperidyl)oxy]phenoxy]methyl]phenyl]thieno[3,2-b]pyrrole-5-carboxamide] the value was less than 10 µM; for `Cn1c(C(=O)Nc2ccccc2COc2ccc(O[C@@H]3C[C@H]4CC[C@@H](C3)N4)cc2)cc2sccc21` [Example 24, N-[2-[[4-[[(1S,5R)-8-azabicyclo[3.2.1]octan-3-yl]oxy]phenoxy]methyl]phenyl]-4-methyl-thieno[3,2-b]pyrrole-5-carboxamide], less than 10 µM; for `Cn1c(C(=O)Nc2cccc(COc3ccc(O[C@@H]4C[C@H]5CC[C@@H](C4)N5)cc3)c2)cc2sccc21` [Example 25, N-[3-[[4-[[(1S,5R)-8-azabicyclo[3.2.1]octan-3-yl]oxy]phenoxy]methyl]phenyl]-4-methyl-thieno[3,2-b]pyrrole-5-carboxamide], less than 10 µM.
For `Cn1c(C(=O)Nc2cccc(COc3ccc(OCC4CCNCC4)cc3)c2)cc2sccc21` [Example 26, 4-methyl-N-[3-[[4-(4-piperidylmethoxy)phenoxy]methyl]phenyl]thieno[3,2-b]pyrrole-5-carboxamide], the half-maximal inhibitory concentration (IC50) is less than 10 µM.
For `Cn1c(C(=O)Nc2ccccc2COc2ccc(OC3CCCNC3)cc2)cc2sccc21` (stereo not shown) [Example 27, 4-methyl-N-[2-[[4-(3-piperidyloxy)phenoxy]methyl]phenyl]thieno[3,2-b]pyrrole-5-carboxamide] the value was less than 10 µM; for `Cn1c(C(=O)Nc2cccc(COc3ccc(OC4CCCNC4)cc3)c2)cc2sccc21` (stereo not shown) [Example 28, 4-methyl-N-[3-[[4-(3-piperidyloxy)phenoxy]methyl]phenyl]thieno[3,2-b]pyrrole-5-carboxamide], less than 10 µM.
Consider `Cn1c(C(=O)Nc2cccc(COc3ccc(O[C@H]4CC[C@H](N)CC4)cc3)c2)cc2sccc21` [Example 29, N-[3-[[4-(trans-4-aminocyclohexoxy)phenoxy]methyl]phenyl]-4-methyl-thieno[3,2-b]pyrrole-5-carboxamide], for which the IC50 was less than 10 µM.
As for `Cn1c(C(=O)Nc2cccc(COc3ccc(OCC4CNC4)cc3)c2)cc2sccc21` [Example 30, N-[3-[[4-(azetidin-3-ylmethoxy)phenoxy]methyl]phenyl]-4-methyl-thieno[3,2-b]pyrrole-5-carboxamide], the figure is less than 10 µM; as for `CNCCCOc1ccc(OCc2ccccc2NC(=O)c2cc3sccc3n2C)cc1` [Example 31, 4-methyl-N-[2-[[4-(3-methylaminopropoxy)phenoxy]methyl]phenyl]thieno[3,2-b]pyrrole-5-carboxamide hydrochloride], less than 10 µM.
For `Cn1c(C(=O)Nc2cccc(COc3ccc(OC4CCNC4)cc3)c2)cc2sccc21` (stereo not shown) [Example 32, 4-methyl-N-[3-[(4-pyrrolidin-3-yloxyphenoxy)methyl]phenyl]thieno[3,2-b]pyrrole-5-carboxamide hydrochloride] the value was less than 10 µM; for `Cn1c(C(=O)Nc2cccc(COc3ccc(OC4CCCNCC4)cc3)c2)cc2sccc21` (stereo not shown) [Example 33, N-[3-[[4-(azepan-4-yloxy)phenoxy]methyl]phenyl]-4-methyl-thieno[3,2-b]pyrrole-5-carboxamide], less than 10 µM; for `Cn1c(C(=O)Nc2cccc(COc3ccc(O[C@H]4CC[C@@H](N)CC4)cc3)c2)cc2sccc21` [Example 34, N-[3-[[4-(cis-4-aminocyclohexoxy)phenoxy]methyl]phenyl]-4-methyl-thieno[3,2-b]pyrrole-5-carboxamide], less than 10 µM.
For the compound `Cn1c(C(=O)Nc2ccccc2C(=O)Nc2ccc(OC3CCNCC3)cc2)cc2sccc21` [Example 36, 4-methyl-N-[2-[[4-(4-piperidyloxy)phenyl]carbamoyl]phenyl]thieno[3,2-b]pyrrole-5-carboxamide], the IC50 is less than 10 µM.
On to `Cn1c(C(=O)Nc2ccccc2COc2ccc(N3CCNCC3)cc2)cc2sccc21` [Example 37, 4-methyl-N-[2-[(4-piperazin-1-ylphenoxy)methyl]phenyl]thieno[3,2-b]pyrrole-5-carboxamide], for which the half-inhibitory concentration (IC50) was less than 10 µM.
Take `Cn1c(C(=O)Nc2ccccc2COc2ccc(NC3CCNCC3)cc2)cc2sccc21` [Example 39, 4-methyl-N-[2-[[4-(4-piperidylamino)phenoxy]methyl]phenyl]thieno[3,2-b]pyrrole-5-carboxamide; 2,2,2-trifluoroacetic acid]: the IC50 is less than 10 µM.
Consider `Cn1c(C(=O)Nc2ccccc2COc2ccc(OCC3CNC3)cc2)cc2sccc21` [Example 40, N-[2-[[4-(azetidin-3-ylmethoxy)phenoxy]methyl]phenyl]-4-methyl-thieno[3,2-b]pyrrole-5-carboxamide; 2,2,2-trifluoroacetic acid], for which the IC50 is less than 10 µM.
For `Cn1c(C(=O)Nc2ccccc2COc2ccc(CN3CCC4(CCNCC4)C3)cc2)cc2sccc21` [Example 41, N-[2-[[4-(2,8-diazaspiro[4.5]decan-2-ylmethyl)phenoxy]methyl]phenyl]-4-methyl-thieno[3,2-b]pyrrole-5-carboxamide], the IC50 is less than 10 µM.
On to `COCc1cccc(NC(=O)c2cc3sccc3n2C)c1COc1ccc(OC[C@@H]2CCNC2)cc1` [Example 42, N-[3-(methoxymethyl)-2-[[4-[[(3R)-pyrrolidin-3-yl]methoxy]phenoxy]methyl]phenyl]-4-methyl-thieno[3,2-b]pyrrole-5-carboxamide hydrochloride], for which the IC50 is less than 10 µM.
For `COCc1cccc(NC(=O)c2cc3sccc3n2C)c1COc1ccc(OC2CCNCC2)cc1` [Example 43, N-[3-(methoxymethyl)-2-[[4-(4-piperidyloxy)phenoxy]methyl]phenyl]-4-methyl-thieno[3,2-b]pyrrole-5-carboxamide hydrochloride], the IC50 is less than 10 µM.
With `COCc1cccc(NC(=O)c2cc3sccc3n2C)c1COc1ccc(OC2CCCNCC2)cc1` (stereo not shown) [Example 44, N-[2-[[4-(azepan-4-yloxy)phenoxy]methyl]-3-(methoxymethyl)phenyl]-4-methyl-thieno[3,2-b]pyrrole-5-carboxamide hydrochloride], the IC50 is less than 10 µM.
With `CCn1c(C(=O)Nc2cccc(COC)c2)cc2sccc21` [Example 45, 4-ethyl-N-[3-(methoxymethyl)phenyl]thieno[3,2-b]pyrrole-5-carboxamide], the IC50 is less than 10 µM.
Regarding `CSCc1cccc(NC(=O)c2cc3sccc3n2C)c1` [Example 46, 4-methyl-N-[3-(methylsulfanylmethyl)phenyl]thieno[3,2-b]pyrrole-5-carboxamide], the IC50 was less than 10 µM.
Turning to `COCc1cccc(NC(=O)c2cc3ccsc3n2C)c1` [Example 48, N-[3-(methoxymethyl)phenyl]-6-methyl-thieno[2,3-b]pyrrole-5-carboxamide], the IC50 is less than 25 µM.
For `Cn1c(C(=O)Nc2ccccc2COc2ccc(OC3CCNCC3)cn2)cc2sccc21` [Example 56, 4-Methyl-N-[2-[[5-(4-piperidyloxy)-2-pyridyl]oxymethyl]phenyl]thieno[3,2-b]pyrrole-5-carboxamide hydrochloride], the IC50 is less than 25 µM.
For `Cn1c(C(=O)Nc2ccccc2OCC2CCNCC2)cc2sccc21` [Example 57, 4-Methyl-N-[2-(4-piperidylmethoxy)phenyl]thieno[3,2-b]pyrrole-5-carboxamide hydrochloride], the IC50 was less than 50 µM.
In the case of `Cn1c(C(=O)Nc2cccc(COc3cccc(OC4CCNCC4)c3)c2)cc2sccc21` [Example 58, 4-Methyl-N-[3-[[3-(4-piperidyloxy)phenoxy]methyl]phenyl]thieno[3,2-b]pyrrole-5-carboxamide hydrochloride], the IC50 is less than 10 µM.
Take `Cn1c(C(=O)Nc2cccc(COc3ccc(CNC(=N)N)cc3)c2)cc2sccc21` [Example 59, N-[3-[[4-(Guanidinomethyl)phenoxy]methyl]phenyl]-4-methyl-thieno[3,2-b]pyrrole-5-carboxamide; trifluoroacetic acid]: the IC50 is less than 10 µM.
For `Cn1c(C(=O)Nc2ccccc2COc2ccc(CNC(=N)N)cc2)cc2sccc21` [Example 60, N-[2-[[4-(Guanidinomethyl)phenoxy]methyl]phenyl]-4-methyl-thieno[3,2-b]pyrrole-5-carboxamide; trifluoroacetic acid] the value was less than 10 µM.
`Cn1c(C(=O)Nc2ccccc2COc2cccc(OC3CCNCC3)c2)cc2ccsc21` [Example 64, 6-Methyl-N-[2-[[3-(4-piperidyloxy)phenoxy]methyl]phenyl]thieno[2,3-b]pyrrole-5-carboxamide]: the IC50 was less than 10 µM.
As to `CCn1c(C(=O)Nc2ccccc2COc2cccc(OC3CCNCC3)c2)cc2ccsc21` [Example 65, 6-Ethyl-N-[2-[[3-(4-piperidyloxy)phenoxy]methyl]phenyl]thieno[2,3-b]pyrrole-5-carboxamide], the IC50 is less than 10 µM.
With `CCn1c(C(=O)Nc2ccccc2COc2ccc(OC3CCNCC3)cc2)cc2ccsc21` [Example 66, 6-Ethyl-N-[2-[[4-(4-piperidyloxy)phenoxy]methyl]phenyl]thieno[2,3-b]pyrrole-5-carboxamide hydrochloride], the IC50 is less than 10 µM.
As for `Cn1c(C(=O)Nc2ccccc2COc2ccc(OC3CCNCC3)cc2)cc2ccsc21` [Example 67, 6-Methyl-N-[2-[[4-(4-piperidyloxy)phenoxy]methyl]phenyl]thieno[2,3-b]pyrrole-5-carboxamide], the figure is less than 10 µM; as for `Cn1c(C(=O)Nc2ccccc2COc2ccc(OCC3CCNC3)cc2)cc2ccsc21` (stereo not shown) [Example 68, 6-Methyl-N-[2-[[4-(pyrrolidin-3-ylmethoxy)phenoxy]methyl]phenyl]thieno[2,3-b]pyrrole-5-carboxamide hydrochloride], less than 10 µM.
